{"source": "paper PMC8383318", "about": "“Preclinical Pharmacokinetics, Tissue Distribution, and Primary Safety Evaluation of Indo5, a Novel Selective Inhibitor of c-Met and Trks” (Frontiers in Pharmacology, 2021)", "key": {"[1]": {"test": "Tissue-distribution study in rats", "type": "in vivo, Wistar rats"}, "[2]": {"tested_on": "TrkB", "parameters": "method as in Luo et al., 2019", "details": "ref Luo et al., 2019; read-out: half-maximal inhibitory concentration, TrkB kinase activity; cited from earlier work"}, "[3]": {"tested_on": "TrkA", "parameters": "method as in Luo et al., 2019", "details": "ref Luo et al., 2019; read-out: half-maximal inhibitory concentration, TrkA kinase activity; cited from earlier work"}, "[4]": {"tested_on": "HCC cells", "parameters": "method as in Luo et al., 2019", "details": "ref Luo et al., 2019, cited from earlier work"}, "[5]": {"parameters": "species or system mice", "details": "mouse, in vivo, po, 60 mg/kg"}, "[6]": {"test": "Pharmacokinetic study in rat plasma (IV and oral), LC-MS/MS, non-compartmental analysis", "type": "in vivo, Wistar rats", "procedure": "For intravenous (IV) treatment, Indo5 was dissolved in DMSO (solution, 1 mg/ml) and injected into the lateral tail vein of rats (1 mg/kg, n = 3). For intragastric treatment, Indo5 was dissolved in 5% CMC-Na (suspension, 20 mg/ml). The rats were orally administered with Indo5 (100 mg/kg, n = 3) using a 20-G gavage needle. All of the animals were given a standard diet 4 h after the dosing. Blood samples (approximately 400 μl) were collected from each rat and placed into heparinized tubes before the dosing, and at 5, 15, 30, 60, 120, 240, and 480 min after the dosing. Plasma (100 μl) was harvested by centrifuging blood samples at 3,600 g for 10 min at room temperature followed by immediate processing for the analyses.\nBriefly, 400 μl acetonitrile was added to 100 μl rat plasma or tissue homogenate, vortexed for 30 s, and centrifuged at 10,000 g for 10 min at room temperature to precipitate proteins. Subsequently, the supernatant (40 μl) was introduced into the HPLC/MS system. Plasma or tissue concentrations of Indo5 were determined using HPLC-MS/MS validated for pharmacokinetics.\nThe plasma concentration–time data obtained after intravenous and intragastric administrations were subjected to non-compartmental analyses based on the statistical moment theory. Pharmacokinetic parameters were calculated using WinNorlin 5.2 (Certara; www.certara.com/). These parameters included the maximum plasma concentration (Cmax), time to reach Cmax (Tmax), elimination half-life (t1/2), area under the plasma concentration–time curve from time zero to infinity (AUC0–∞), mean residence time (MRT), and clearance (CL). The absolute oral bioavailability was calculated by dividing the AUCtot obtained from oral administration by the AUCtot obtained from IV administration, and the calculation was adjusted using the doses that had been administered via oral and IV routes."}, "[7]": {"details": "oral (p.o.) 100 mg/kg in CMC-Na suspension, n = 3"}}, "data": [{"smiles": "Cc1ccccc1NS(=O)(=O)c1ccc2c(c1)C(=Cc1nc3ccccc3[nH]1)C(=O)N2", "note": "[Indo5, 3-(1H-benzimidazol-2-methylene)-5-(2-methylphenylaminosulfo)-2-indolone]", "values": [{"measurement": "crossing of blood–brain and blood–testes barriers", "setting": "[1]", "result": "could not cross the blood–brain or blood–testes barriers"}, {"measurement": "IC50", "setting": "[2]", "result": 25, "unit": "nM"}, {"measurement": "IC50", "setting": "[3]", "result": 28, "unit": "nM"}, {"measurement": "survival of mice with hepatic orthotopic tumors", "setting": "[4]; hepatic orthotopic tumors", "result": "increases the survival"}, {"measurement": "growth of HCC cells in xenograft-transplanted mice", "setting": "[4]; xenograft-transplanted mice", "result": "significantly decreases the growth of HCC cells"}, {"measurement": "histological analysis of liver tissue", "setting": "[5]", "result": "no pathological changes"}, {"measurement": "number and frequencies of immune cells in the liver (flow cytometry)", "setting": "[5]", "result": "did not affect the number or frequencies of immune cells in the liver"}, {"measurement": "Tmax", "setting": "[6]; IV 1 mg/kg", "result": 1, "unit": "min"}, {"measurement": "AUC0-t", "setting": "[6]; IV 1 mg/kg in DMSO, n = 3", "result": "158.6 ± 27.9", "unit": "ng·h/mL"}, {"measurement": "AUC0-∞", "setting": "[6]; IV 1 mg/kg in DMSO, n = 3", "result": "163.4 ± 28.3", "unit": "ng·h/mL"}, {"measurement": "CL", "setting": "[6]; IV 1 mg/kg in DMSO, n = 3", "result": "6,121.6 ± 1,124.8 ml/h/kg"}, {"measurement": "Cmax", "setting": "[6]; IV 1 mg/kg in DMSO, n = 3", "result": "1,565.3 ± 286.2 ng/ml"}, {"measurement": "MRT0-t", "setting": "[6]; IV 1 mg/kg in DMSO, n = 3", "result": "10.8 ± 2.4", "unit": "min"}, {"measurement": "MRT0-∞", "setting": "[6]; IV 1 mg/kg in DMSO, n = 3", "result": "15.6 ± 3.6", "unit": "min"}, {"measurement": "Tmax", "setting": "[6]; IV 1 mg/kg in DMSO, n = 3", "result": 1, "unit": "min"}, {"measurement": "t1/2", "setting": "[6]; IV 1 mg/kg in DMSO, n = 3", "result": "37.8 ± 6.6", "unit": "min"}, {"measurement": "AUC0-t", "setting": "[6]; [7]", "result": "251.5 ± 43.5", "unit": "ng·h/mL"}, {"measurement": "AUC0-∞", "setting": "[6]; [7]", "result": "255.7 ± 44.9", "unit": "ng·h/mL"}, {"measurement": "CL", "setting": "[6]; [7]", "result": "391056.4 ± 77,945.8 ml/h/kg"}, {"measurement": "Cmax", "setting": "[6]; [7]", "result": "54.7 ± 10.4", "unit": "ng/mL"}, {"measurement": "MRT0-t", "setting": "[6]; [7]", "result": "172 ± 36.6", "unit": "min"}, {"measurement": "MRT0-∞", "setting": "[6]; [7]", "result": "179 ± 37.8", "unit": "min"}, {"measurement": "Tmax", "setting": "[6]; [7]", "result": "120 ± 28.8", "unit": "min"}, {"measurement": "Vd", "setting": "[6]; [7]", "result": "706.349 ± 106.9412", "unit": "L/kg"}, {"measurement": "t1/2", "setting": "[6]; [7]", "result": "75 ± 14.4", "unit": "min"}]}]}
